What is called inhibition is the drop in the measured response relative to a control, in per cent.

The target in experiment [1] is Tyrosine-protein kinase receptor UFO (Homo sapiens) (UniProt P30530). The experiment can be described thus: Inhibition of Axl (unknown origin) at 0.1 uM relative to control.
For experiment [2], the species on record is Homo sapiens. The experiment can be described thus: Inhibition of CDK2/cyclinA (unknown origin) at 0.1 uM relative to control.
The target of experiment [3] is Casein kinase I isoform alpha (Homo sapiens) (UniProt P48729). The experiment can be described thus: Inhibition of CK1alpha1 (unknown origin) at 0.1 uM relative to control.
Sequence of Casein kinase I isoform alpha (Homo sapiens) (P48729 2-337 limits assumed): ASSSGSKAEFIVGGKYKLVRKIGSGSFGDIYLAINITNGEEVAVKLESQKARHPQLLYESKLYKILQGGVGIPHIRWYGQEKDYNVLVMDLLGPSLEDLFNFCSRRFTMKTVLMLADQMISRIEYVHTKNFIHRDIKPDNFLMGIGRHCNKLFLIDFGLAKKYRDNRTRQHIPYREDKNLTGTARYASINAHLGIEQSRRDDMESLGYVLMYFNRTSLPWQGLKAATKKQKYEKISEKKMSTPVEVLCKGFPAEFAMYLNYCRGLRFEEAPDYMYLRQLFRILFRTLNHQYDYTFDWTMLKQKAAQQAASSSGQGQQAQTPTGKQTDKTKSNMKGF
Experiment [4] deals with Dual specificity protein kinase CLK2 (Homo sapiens) (UniProt P49760). The experiment is described as follows: Inhibition of CLK2 (unknown origin) at 0.1 uM relative to control.
In experiment [5] the target is Calcium/calmodulin-dependent protein kinase type IV (Homo sapiens) (UniProt Q16566). The experiment is described as follows: Inhibition of CamKIV (unknown origin) at 0.1 uM relative to control.
Experiment [6] deals with Dual specificity tyrosine-phosphorylation-regulated kinase 4 (Homo sapiens) (UniProt Q9NR20). The experiment can be described thus: Inhibition of DYRK4 (unknown origin) at 0.1 uM relative to control.
The target of experiment [7] is Ephrin type-B receptor 3 (Homo sapiens) (UniProt P54753). The experiment can be described thus: Inhibition of EphB3 (unknown origin) at 0.1 uM relative to control.
Experiment [8] has as its target Receptor tyrosine-protein kinase erbB-2 (Homo sapiens) (UniProt P04626). The experiment is described as follows: Inhibition of ErbB2 (unknown origin) at 0.1 uM relative to control.
For experiment [9], the target named is Fibroblast growth factor receptor 4 (Homo sapiens) (UniProt P22455). The experiment can be described thus: Inhibition of FGFR4 (unknown origin) at 0.1 uM relative to control.
Experiment [10] addresses Tyrosine-protein kinase FRK (Homo sapiens) (UniProt P42685). The experiment is described as follows: Inhibition of Frk (unknown origin) at 0.1 uM relative to control.
The target in experiment [11] is Homeodomain-interacting protein kinase 2 (Homo sapiens) (UniProt Q9H2X6). The experiment is described as follows: Inhibition of HIPK2 (unknown origin) at 0.1 uM relative to control.
The target in experiment [12] is Insulin receptor (Homo sapiens) (UniProt P06213). The experiment can be described thus: Inhibition of InsR (unknown origin) at 0.1 uM relative to control.
For experiment [13], the target named is Leukocyte tyrosine kinase receptor (Homo sapiens) (UniProt P29376). The experiment is described as follows: Inhibition of LTK (unknown origin) at 0.1 uM relative to control.
The target in experiment [14] is Tyrosine-protein kinase Lck (Homo sapiens) (UniProt P06239). The experiment is described as follows: Inhibition of Lck (unknown origin) at 0.1 uM relative to control.
For experiment [15], the target named is MAP kinase-interacting serine/threonine-protein kinase 1 (Homo sapiens) (UniProt Q9BUB5). The experiment is described as follows: Inhibition of MKNK1 (unknown origin) at 0.1 uM relative to control.
Experiment [16] has as its target Ribosomal protein S6 kinase alpha-5 (Homo sapiens) (UniProt O75582). The experiment can be described thus: Inhibition of MSK1 (unknown origin) at 0.1 uM relative to control.
For experiment [17], the target named is SRSF protein kinase 3 (Homo sapiens) (UniProt Q9UPE1). The experiment can be described thus: Inhibition of MSSK1 (unknown origin) at 0.1 uM relative to control.
For experiment [18], the target named is Serine/threonine-protein kinase 3 (Homo sapiens) (UniProt Q13188). The experiment can be described thus: Inhibition of MST2 (unknown origin) at 0.1 uM relative to control.
Sequence of Serine/threonine-protein kinase 3 (Homo sapiens) (Q13188 whole entry): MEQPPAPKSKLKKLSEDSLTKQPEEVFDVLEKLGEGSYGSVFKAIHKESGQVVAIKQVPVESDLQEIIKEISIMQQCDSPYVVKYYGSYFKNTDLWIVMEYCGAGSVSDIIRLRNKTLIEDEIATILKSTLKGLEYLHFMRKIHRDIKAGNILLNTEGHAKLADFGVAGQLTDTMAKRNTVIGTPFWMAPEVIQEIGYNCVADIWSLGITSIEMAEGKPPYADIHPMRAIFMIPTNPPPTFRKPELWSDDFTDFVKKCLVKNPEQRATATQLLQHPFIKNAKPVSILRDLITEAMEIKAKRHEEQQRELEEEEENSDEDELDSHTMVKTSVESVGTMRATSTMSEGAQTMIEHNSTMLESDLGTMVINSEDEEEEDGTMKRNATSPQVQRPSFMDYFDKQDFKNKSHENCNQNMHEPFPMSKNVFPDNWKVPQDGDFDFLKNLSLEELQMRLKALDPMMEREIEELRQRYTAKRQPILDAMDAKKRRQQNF
Experiment [19] concerns the target Serine/threonine-protein kinase Nek4 (Homo sapiens) (UniProt P51957). The experiment is described as follows: Inhibition of NEK4 (unknown origin) at 0.1 uM relative to control.
The target in experiment [20] is Serine/threonine-protein kinase Nek6 (Homo sapiens) (UniProt Q9HC98). The experiment is described as follows: Inhibition of NEK6 (unknown origin) at 0.1 uM relative to control.
Sequence of Serine/threonine-protein kinase Nek6 (Homo sapiens) (Q9HC98 whole entry): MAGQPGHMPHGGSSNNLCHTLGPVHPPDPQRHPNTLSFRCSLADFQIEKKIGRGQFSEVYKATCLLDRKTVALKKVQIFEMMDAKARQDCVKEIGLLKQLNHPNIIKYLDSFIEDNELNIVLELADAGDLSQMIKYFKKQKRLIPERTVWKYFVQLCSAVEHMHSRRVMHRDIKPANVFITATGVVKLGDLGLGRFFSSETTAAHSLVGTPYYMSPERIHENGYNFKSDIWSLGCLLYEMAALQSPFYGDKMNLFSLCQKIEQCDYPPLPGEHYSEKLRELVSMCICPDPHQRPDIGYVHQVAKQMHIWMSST
For experiment [21], the target named is Protein kinase C theta type (Homo sapiens) (UniProt Q04759). The experiment is described as follows: Inhibition of PKCtheta (unknown origin) at 0.1 uM relative to control.
Experiment [22] addresses Serine/threonine-protein kinase PLK1 (Homo sapiens) (UniProt P53350). The experiment can be described thus: Inhibition of PLK1 (unknown origin) at 0.1 uM relative to control.
Experiment [23] addresses Rho-associated protein kinase 2 (Homo sapiens) (UniProt O75116). The experiment can be described thus: Inhibition of ROCK2 (unknown origin) at 0.1 uM relative to control.
Experiment [24] has as its target Serine/threonine-protein kinase Sgk1 (Homo sapiens) (UniProt O00141). The experiment is described as follows: Inhibition of SGK1 (unknown origin) at 0.1 uM relative to control.
Experiment [25] addresses Serine/threonine-protein kinase Sgk2 (Homo sapiens) (UniProt Q9HBY8). The experiment can be described thus: Inhibition of SGK2 (unknown origin) at 0.1 uM relative to control.
The target in experiment [26] is Non-receptor tyrosine-protein kinase TYK2 (Homo sapiens) (UniProt P29597). The experiment can be described thus: Inhibition of TYK2 (unknown origin) at 0.1 uM relative to control.
The target in experiment [27] is BDNF/NT-3 growth factors receptor (Homo sapiens) (UniProt Q16620). The experiment is described as follows: Inhibition of TrkB (unknown origin) at 0.1 uM relative to control.
Experiment [28] has as its target Serine/threonine-protein kinase 25 (Homo sapiens) (UniProt O00506). The experiment is described as follows: Inhibition of YSK1 (unknown origin) at 0.1 uM relative to control.
The target of experiment [29] is Serine/threonine-protein kinase Chk2 (Homo sapiens) (UniProt O96017). The experiment is described as follows: Inhibition of CHK2 (unknown origin) at 0.1 uM relative to control.
In experiment [30] the target is Ephrin type-B receptor 1 (Homo sapiens) (UniProt P54762). The experiment is described as follows: Inhibition of EphB1 (unknown origin) at 0.1 uM relative to control.
Experiment [31] addresses NUAK family SNF1-like kinase 1 (Homo sapiens) (UniProt O60285). The experiment can be described thus: Inhibition of ARK5 (unknown origin) at 0.1 uM relative to control.
For experiment [32], the target named is Cyclin-dependent kinase 7/ cyclin H (Homo sapiens) (UniProt P51946+P50613). The experiment is described as follows: Inhibition of CDK7/CyclinH (unknown origin) at 0.1 uM relative to control. The format is protein-complex assay.
Experiment [33] has as its target CDK8/Cyclin C (Homo sapiens) (UniProt P49336+P24863). The experiment is described as follows: Inhibition of CDK8/CyclinC (unknown origin) at 0.1 uM relative to control. It counts as protein-complex assay.
Experiment [34] addresses Leucine-rich repeat serine/threonine-protein kinase 2 (Homo sapiens) (UniProt Q5S007). The experiment is described as follows: Inhibition of LRRK2 (unknown origin) at 0.1 uM relative to control.
Experiment [35] has as its target Serine/threonine-protein kinase 26 (Homo sapiens) (UniProt Q9P289). The experiment is described as follows: Inhibition of MST4 (unknown origin) at 0.1 uM relative to control.
The target in experiment [36] is Serine/threonine-protein kinase NLK (Homo sapiens) (UniProt Q9UBE8). The experiment can be described thus: Inhibition of NLK (unknown origin) at 0.1 uM relative to control.
Sequence of Serine/threonine-protein kinase NLK (Homo sapiens) (Q9UBE8 whole entry): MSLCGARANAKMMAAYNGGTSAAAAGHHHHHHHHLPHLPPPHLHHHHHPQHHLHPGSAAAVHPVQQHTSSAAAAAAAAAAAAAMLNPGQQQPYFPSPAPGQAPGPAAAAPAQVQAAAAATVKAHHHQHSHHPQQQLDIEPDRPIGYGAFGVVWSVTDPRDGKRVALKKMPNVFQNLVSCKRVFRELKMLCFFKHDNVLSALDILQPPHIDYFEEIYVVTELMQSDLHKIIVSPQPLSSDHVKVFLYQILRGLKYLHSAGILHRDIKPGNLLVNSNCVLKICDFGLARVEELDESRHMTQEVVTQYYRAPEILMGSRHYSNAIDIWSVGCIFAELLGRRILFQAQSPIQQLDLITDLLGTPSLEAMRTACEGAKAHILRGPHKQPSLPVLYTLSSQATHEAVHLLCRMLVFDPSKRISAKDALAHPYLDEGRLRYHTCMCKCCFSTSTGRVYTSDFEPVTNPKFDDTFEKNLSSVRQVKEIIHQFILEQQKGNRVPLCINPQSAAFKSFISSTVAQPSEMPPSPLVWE
The target of experiment [37] is cAMP-dependent protein kinase (PKA) (Homo sapiens) (UniProt P22694+P17612+P22612). The experiment can be described thus: Inhibition of PKA (unknown origin) at 0.1 uM relative to control. The format is protein assay.
The target of experiment [38] is TGF-beta receptor type-1 (Homo sapiens) (UniProt P36897). The experiment can be described thus: Inhibition of TGFBR1 (unknown origin) at 0.1 uM relative to control.

Sequence of Receptor tyrosine-protein kinase erbB-2 (Homo sapiens) (P04626 whole entry): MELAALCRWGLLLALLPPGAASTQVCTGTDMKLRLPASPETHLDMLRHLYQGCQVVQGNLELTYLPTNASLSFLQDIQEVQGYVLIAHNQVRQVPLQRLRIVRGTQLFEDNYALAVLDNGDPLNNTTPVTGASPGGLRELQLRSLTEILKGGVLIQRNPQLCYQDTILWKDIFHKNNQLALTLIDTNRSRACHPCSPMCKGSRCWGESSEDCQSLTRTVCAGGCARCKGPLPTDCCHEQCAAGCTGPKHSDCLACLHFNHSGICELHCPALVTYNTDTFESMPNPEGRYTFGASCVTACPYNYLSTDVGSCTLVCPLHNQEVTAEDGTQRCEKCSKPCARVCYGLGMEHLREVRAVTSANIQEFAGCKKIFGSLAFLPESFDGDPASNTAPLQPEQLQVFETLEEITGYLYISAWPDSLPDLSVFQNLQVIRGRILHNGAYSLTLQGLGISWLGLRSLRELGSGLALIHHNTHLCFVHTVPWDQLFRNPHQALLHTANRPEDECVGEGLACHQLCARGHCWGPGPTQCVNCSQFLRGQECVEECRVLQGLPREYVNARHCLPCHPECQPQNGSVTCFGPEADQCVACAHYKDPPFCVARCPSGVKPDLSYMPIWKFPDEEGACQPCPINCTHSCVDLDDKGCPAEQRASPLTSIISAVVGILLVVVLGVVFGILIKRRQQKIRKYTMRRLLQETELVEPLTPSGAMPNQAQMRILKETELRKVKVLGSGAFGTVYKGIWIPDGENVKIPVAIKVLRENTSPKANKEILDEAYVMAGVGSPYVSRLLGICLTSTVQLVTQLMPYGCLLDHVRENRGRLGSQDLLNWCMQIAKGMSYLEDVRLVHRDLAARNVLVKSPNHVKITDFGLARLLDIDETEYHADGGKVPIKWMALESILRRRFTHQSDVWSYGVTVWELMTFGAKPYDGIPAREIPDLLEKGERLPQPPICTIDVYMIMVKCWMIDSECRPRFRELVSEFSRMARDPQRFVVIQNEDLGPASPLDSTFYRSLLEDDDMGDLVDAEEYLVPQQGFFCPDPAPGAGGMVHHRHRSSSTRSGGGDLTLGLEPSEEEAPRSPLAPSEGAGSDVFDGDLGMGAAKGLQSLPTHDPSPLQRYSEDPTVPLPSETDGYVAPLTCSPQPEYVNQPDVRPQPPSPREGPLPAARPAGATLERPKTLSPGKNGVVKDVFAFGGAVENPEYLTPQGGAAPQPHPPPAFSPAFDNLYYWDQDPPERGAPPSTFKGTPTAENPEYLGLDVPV
Sequence of Serine/threonine-protein kinase 26 (Homo sapiens) (Q9P289 2-416 limits assumed): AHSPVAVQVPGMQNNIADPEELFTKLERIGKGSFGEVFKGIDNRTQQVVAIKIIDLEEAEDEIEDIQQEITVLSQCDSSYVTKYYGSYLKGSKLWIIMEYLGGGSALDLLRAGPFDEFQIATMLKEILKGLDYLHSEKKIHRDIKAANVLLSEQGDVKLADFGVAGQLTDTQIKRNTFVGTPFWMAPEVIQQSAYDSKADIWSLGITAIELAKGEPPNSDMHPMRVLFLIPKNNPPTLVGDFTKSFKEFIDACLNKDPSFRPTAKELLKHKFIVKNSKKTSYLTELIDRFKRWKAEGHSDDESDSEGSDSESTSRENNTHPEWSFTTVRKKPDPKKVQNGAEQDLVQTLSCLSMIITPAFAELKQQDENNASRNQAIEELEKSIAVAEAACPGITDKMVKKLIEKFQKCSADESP
Sequence of Rho-associated protein kinase 2 (Homo sapiens) (O75116 whole entry, looked up): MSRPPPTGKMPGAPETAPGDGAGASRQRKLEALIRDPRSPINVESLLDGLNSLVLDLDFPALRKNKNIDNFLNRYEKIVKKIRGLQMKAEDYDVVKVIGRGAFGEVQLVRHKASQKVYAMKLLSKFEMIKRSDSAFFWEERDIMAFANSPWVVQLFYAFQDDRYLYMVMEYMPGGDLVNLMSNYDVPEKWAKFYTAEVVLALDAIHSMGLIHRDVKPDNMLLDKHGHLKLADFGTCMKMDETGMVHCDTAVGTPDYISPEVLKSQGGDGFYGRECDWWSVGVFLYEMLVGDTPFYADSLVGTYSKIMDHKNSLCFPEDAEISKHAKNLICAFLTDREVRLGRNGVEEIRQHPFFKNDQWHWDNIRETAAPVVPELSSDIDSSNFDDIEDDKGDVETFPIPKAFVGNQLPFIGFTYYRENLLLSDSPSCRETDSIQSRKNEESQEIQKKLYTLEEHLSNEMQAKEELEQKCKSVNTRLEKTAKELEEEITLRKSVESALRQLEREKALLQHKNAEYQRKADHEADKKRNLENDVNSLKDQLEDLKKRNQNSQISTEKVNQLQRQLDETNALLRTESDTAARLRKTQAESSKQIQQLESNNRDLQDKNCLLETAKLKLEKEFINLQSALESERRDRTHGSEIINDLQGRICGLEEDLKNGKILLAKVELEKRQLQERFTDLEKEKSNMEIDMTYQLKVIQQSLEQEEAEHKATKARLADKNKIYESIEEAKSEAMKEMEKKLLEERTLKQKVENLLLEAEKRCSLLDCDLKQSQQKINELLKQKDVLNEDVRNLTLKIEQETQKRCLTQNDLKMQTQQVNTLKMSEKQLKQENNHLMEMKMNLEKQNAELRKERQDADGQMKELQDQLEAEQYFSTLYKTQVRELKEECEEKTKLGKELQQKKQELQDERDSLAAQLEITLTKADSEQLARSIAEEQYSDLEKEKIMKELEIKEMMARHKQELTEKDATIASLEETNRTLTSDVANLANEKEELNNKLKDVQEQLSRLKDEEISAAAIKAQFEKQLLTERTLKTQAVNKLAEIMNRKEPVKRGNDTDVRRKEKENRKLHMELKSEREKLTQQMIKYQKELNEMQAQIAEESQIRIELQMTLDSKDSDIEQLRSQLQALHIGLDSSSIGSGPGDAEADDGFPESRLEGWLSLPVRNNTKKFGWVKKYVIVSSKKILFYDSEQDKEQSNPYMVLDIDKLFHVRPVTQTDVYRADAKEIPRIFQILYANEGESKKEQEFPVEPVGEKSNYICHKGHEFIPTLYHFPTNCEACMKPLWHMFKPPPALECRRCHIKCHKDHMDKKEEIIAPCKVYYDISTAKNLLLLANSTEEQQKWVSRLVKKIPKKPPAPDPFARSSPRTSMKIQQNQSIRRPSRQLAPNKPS

For the molecule `COCCNc1nc2ccc(C#CC3(O)CCCCC3)cc2n1-c1ccnc(N)n1`, the inhibition in experiment [1] was 1.9%; in [2], 1.9%; in [3], 8.8%; in [4] it was 0%; in experiment [5], -6.6%; in experiment [6], -3%. The inhibition in experiment [7] was 5.5%; in [8] it was -5%; in experiment [9], -1%; in [10], 13.1%; in experiment [11], 2.8%; in experiment [12], 3.5%. Also, the inhibition in [13] is -0.9%; in experiment [14], 7.6%; in [15], -2.7%; in experiment [16], 4.2%; in experiment [17], 9.8%; in experiment [18], 8.8%. In addition, the inhibition is 2% in experiment [19]; 9.9% in experiment [20]; 12.3% in experiment [21]; -2% in experiment [22]; 0.5% in experiment [23]; 4.4% in experiment [24]. Moreover, the inhibition in experiment [25] is -2.9%; in experiment [26], 3.3%; in experiment [27], 15.1%; in experiment [28], 6.5%.
Turning to `CN1CCc2cc(-c3cnc4[nH]cc(C(=O)c5ccccc5Cl)c4c3)ccc2C1`, the inhibition worked out at 4.3% in [29]; 93% in experiment [30]; 85.5% in [31]; 31% in experiment [32]; 57.3% in [33]; 48.2% in [34]. Also, the inhibition in experiment [35] is 82%; in experiment [36] it was 5%; in experiment [37], 13%; in experiment [38], 99.3%.

Values taken from ChEMBL document CHEMBL5678812, “Inhibitors of p21-activated kinases (PAKs)” (J Med Chem, 2015).
